Experimental data: patent publication US20190292189A1, “LIM KINASE INHIBITORS” (VIRONGY, LLC, priority 2016, published 2019)
Read-outs that look alike come from different tables or passages of the source.

Experiments:
ROCK-II = ROCK-II (Homo sapiens, UniProt O75116); assay: ROCK-II biochemical counter-screen
Limk1 = Limk1 (Homo sapiens, UniProt P53667); assay: Limk1 biochemical assay (Reaction Biology, 10-dose IC50); set-up: His; purchased Reaction Biology Corporation; host or cells: insect cells; conditions: for Limk1 inhibition: compared with 14a, values only in FIG. 4
[1] = Plasma pharmacokinetics studies on rats; conditions: rats; for AUC (iv) / Cl (iv) / T1/2 (iv) / Yd (iv) / Cmax: iv dosing 1 mg/kg; for F (%) (po): po dosing 2 mg/kg; for Cmax: read-out: Cmax (iv)
Method: In vivo pharmacokinetics (PK) studies were conducted for selected compounds during the whole optimization at various stages in order to identify structural elements that are favorable for in vivo applications, and/or to evaluate the feasibility of optimized Limk inhibitors for animal studies.

[2] = Table 1, means of ≥2 experiments, read-out: IC50 (nM) ROCK-II
[3] = Table 1, means of ≥2 experiments, read-out: IC50 (nM) Limk1
[4] = Table 3, means of ≥2 experiments, read-out: IC50 (nM) ROCK-II
[5] = Table 3, means of ≥2 experiments, read-out: IC50 (nM) Limk1
[6] = Table 4, means of ≥2 experiments, read-out: IC50 (nM) ROCK-II
[7] = Table 4, means of ≥2 experiments, read-out: IC50 (nM) Limk1

Chain of ROCK-II (O75116 whole entry, species assumed): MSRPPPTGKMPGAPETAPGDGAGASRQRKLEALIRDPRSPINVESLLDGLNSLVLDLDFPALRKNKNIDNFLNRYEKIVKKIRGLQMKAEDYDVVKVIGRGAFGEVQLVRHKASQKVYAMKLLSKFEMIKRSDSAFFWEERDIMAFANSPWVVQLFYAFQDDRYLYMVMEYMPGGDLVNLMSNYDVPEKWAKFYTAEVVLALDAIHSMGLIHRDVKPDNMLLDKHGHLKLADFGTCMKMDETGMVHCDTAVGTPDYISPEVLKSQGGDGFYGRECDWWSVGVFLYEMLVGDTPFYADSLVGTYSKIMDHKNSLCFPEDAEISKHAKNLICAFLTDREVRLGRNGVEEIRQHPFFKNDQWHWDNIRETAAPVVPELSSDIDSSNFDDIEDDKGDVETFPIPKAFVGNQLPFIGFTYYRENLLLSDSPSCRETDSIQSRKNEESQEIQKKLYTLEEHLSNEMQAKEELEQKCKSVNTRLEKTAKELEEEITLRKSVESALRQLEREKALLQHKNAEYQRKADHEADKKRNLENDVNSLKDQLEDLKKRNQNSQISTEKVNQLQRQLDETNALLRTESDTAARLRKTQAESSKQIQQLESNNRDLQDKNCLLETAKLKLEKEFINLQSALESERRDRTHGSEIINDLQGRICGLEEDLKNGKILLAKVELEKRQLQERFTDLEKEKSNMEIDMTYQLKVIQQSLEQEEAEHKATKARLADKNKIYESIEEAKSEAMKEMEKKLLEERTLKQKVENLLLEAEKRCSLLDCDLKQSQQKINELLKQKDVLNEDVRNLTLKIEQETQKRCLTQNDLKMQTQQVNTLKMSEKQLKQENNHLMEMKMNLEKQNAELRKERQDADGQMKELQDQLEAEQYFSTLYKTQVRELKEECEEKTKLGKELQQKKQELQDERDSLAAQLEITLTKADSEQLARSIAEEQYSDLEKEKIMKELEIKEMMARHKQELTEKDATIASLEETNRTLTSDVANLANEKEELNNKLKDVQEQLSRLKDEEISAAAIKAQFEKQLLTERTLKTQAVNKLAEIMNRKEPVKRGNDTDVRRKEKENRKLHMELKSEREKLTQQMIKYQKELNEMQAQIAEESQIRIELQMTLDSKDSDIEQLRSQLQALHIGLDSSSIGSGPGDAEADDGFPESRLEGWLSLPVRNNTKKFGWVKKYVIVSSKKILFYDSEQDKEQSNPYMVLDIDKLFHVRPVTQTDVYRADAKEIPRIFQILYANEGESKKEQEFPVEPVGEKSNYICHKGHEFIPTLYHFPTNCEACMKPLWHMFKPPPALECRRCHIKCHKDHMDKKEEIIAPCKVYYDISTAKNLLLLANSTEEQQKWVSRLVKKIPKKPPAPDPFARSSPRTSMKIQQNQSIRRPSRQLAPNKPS
Chain of Limk1 (P53667 285-638): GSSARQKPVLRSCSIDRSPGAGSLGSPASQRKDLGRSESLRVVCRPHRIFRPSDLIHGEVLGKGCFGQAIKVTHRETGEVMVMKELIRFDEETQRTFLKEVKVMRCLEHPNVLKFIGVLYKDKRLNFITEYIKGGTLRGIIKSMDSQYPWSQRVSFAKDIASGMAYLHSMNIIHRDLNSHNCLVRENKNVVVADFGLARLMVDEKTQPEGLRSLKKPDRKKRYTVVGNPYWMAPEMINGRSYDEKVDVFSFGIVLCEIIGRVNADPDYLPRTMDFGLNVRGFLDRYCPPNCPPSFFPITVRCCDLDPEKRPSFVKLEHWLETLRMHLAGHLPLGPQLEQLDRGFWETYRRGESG

## CC(C)NC(=O)c1cccc(NC(=O)Nc2ccc(-c3ncnc4[nH]ccc34)cc2)c1 [Compound 3, 3-(3-(4-(7H-pyrrolo[2,3-d]pyrimidin-4-yl)phenyl)ureido)-N-isopropylbenzamide]
ROCK-II; [2]
  IC50: 1360 nM
Limk1; read-out: Limk1 IC50
  IC50: 201 nM

## CC(C)NC(=O)c1cccc(NC(=O)Nc2ccc(-c3cn[nH]c3)cc2)c1 [Compound 7a, 3-(3-(4-(1H-pyrazol-4-yl)phenyl)ureido)-N-isopropylbenzamide]
ROCK-II; [2]
  IC50: 45 nM
Limk1; [3]
  IC50: > 10000 nM

## CC(C)NC(=O)c1cccc(NC(=O)Nc2ccc(-c3ccncc3)cc2)c1 [Compound 7b, N-Isopropyl-3-(3-(4-(pyridin-4-yl)phenyl)ureido)benzamide]
ROCK-II; [2]
  IC50: 90 nM
Limk1; [3]
  IC50: > 10000 nM

## CC(C)NC(=O)c1cccc(NC(=O)Nc2ccc(-c3ccnc(N)n3)cc2)c1 [Compound 7c, 3-(3-(4-(2-Aminopyrimidin-4-yl)phenyl)ureido)-N-isopropylbenzamide]
ROCK-II; [2]
  IC50: 166 nM
Limk1; [3]
  IC50: > 10000 nM

## Cc1c[nH]c2ncnc(-c3ccc(NC(=O)Nc4cccc(C(=O)NC(C)C)c4)cc3)c12 [Compound 7g, N-Isopropyl-3-(3-(4-(5-methyl-7H-pyrrolo[2,3-d]pyrimidin-4-yl)phenyl)ureido)benzamide]
[1]
  AUC (iv): 4.3 µM·h
  Cl (iv): 9.0 mL/min/kg
  T1/2 (iv): 1.0 h
  Yd (iv): 0.3 L/kg
  F (%) (po): 0%
  Cmax: 8.5 µM

## Cc1cc2c(-c3ccc(NC(=O)Nc4cccc(C(=O)NC(C)C)c4)cc3)ncnc2[nH]1 [Compound 7h, N-Isopropyl-3-(3-(4-(6-methyl-7H-pyrrolo[2,3-d]pyrimidin-4-yl)phenyl)ureido)benzamide]
ROCK-II; [2]
  IC50: > 10000 nM
Limk1; [3]
  IC50: 80 nM

## Cc1c[nH]c2ncnc(-c3ccc(NC(=O)Nc4cccc(C(=O)NC(C)C)c4)c(C(F)(F)F)c3)c12 [Compound 7j, N-Isopropyl-3-(3-(4-(5-methyl-7H-pyrrolo[2,3-d]pyrimidin-4-yl)-2-(trifluoromethyl)phenyl)ureido)-benzamide]
ROCK-II; read-out: ROCK-II IC50
  IC50: 976 nM
Limk1; read-out: Limk1 IC50
  IC50: 60 nM

## Cc1c[nH]c2ncnc(-c3ccc(NC(=O)Nc4cccc(C(=O)NC(C)C)c4)c(OCCN(C)C)c3)c12 [Compound 7l, 3-(3-(2-(2-(Dimethylamino)ethoxy)-4-(5-methyl-7H-pyrrolo[2,3-d]pyrimidin-4-yl)phenyl)ureido)-N-isopropylbenzamide]
ROCK-II; Table 2, means of ≥2 experiments, read-out: IC50 (nM) ROCK-II
  IC50: 7080 nM
Limk1; Table 2, means of ≥2 experiments, read-out: IC50 (nM) Limk1
  IC50: 710 nM

## Cc1c[nH]c2ncnc(-c3ccc(NC(=O)Nc4ccccc4)cc3)c12 [Compound 10a, 1-(4-(5-Methyl-7H-pyrrolo[2,3-d]pyrimidin-4-yl)phenyl)-3-phenylurea]
ROCK-II; read-out: ROCK-II IC50
  IC50: 2360 nM
[1]
  AUC (iv): 14.3 µM·h
  Cl (iv): 3.4 mL/min/kg
  T1/2 (iv): 1.6 h
  Yd (iv): 0.5 L/kg
  F (%) (po): 16%
  Cmax: 7 µM
Limk1; read-out: Limk1 IC50
  IC50: 142 nM

## Cc1c[nH]c2ncnc(-c3ccc(NC(=O)Nc4cccc(F)c4)cc3)c12 [Compound 10b, 1-(3-Fluorophenyl)-3-(4-(5-methyl-7H-pyrrolo[2,3-d]pyrimidin-4-yl)phenyl)urea]
ROCK-II; [4]
  IC50: 5420 nM
Limk1; read-out: Limk1 IC50
  IC50: 315 nM

## COc1ccccc1NC(=O)Nc1ccc(-c2ncnc3[nH]cc(C)c23)cc1 [Compound 10c, 1-(2-Methoxyphenyl)-3-(4-(5-methyl-7H-pyrrolo[2,3-d]pyrimidin-4-yl)phenyl)urea]
ROCK-II; [4]
  IC50: 6650 nM
Limk1; read-out: Limk1 IC50
  IC50: 283 nM

## COc1cccc(NC(=O)Nc2ccc(-c3ncnc4[nH]cc(C)c34)cc2)c1 [Compound 10d, 1-(3-Methoxyphenyl)-3-(4-(5-methyl-7H-pyrrolo[2,3-d]pyrimidin-4-yl)phenyl)urea]
ROCK-II; [4]
  IC50: 2570 nM
Limk1; [5]
  IC50: 75 nM

## COc1ccc(NC(=O)Nc2ccc(-c3ncnc4[nH]cc(C)c34)cc2)cc1 [Compound 10e, 1-(4-Methoxyphenyl)-3-(4-(5-methyl-7H-pyrrolo[2,3-d]pyrimidin-4-yl)phenyl)urea]
ROCK-II; [4]
  IC50: > 10000 nM
ROCK-II; read-out: ROCK-II IC50
  IC50: > 10000 nM

## Cc1c[nH]c2ncnc(-c3ccc(NC(=O)Nc4nccs4)cc3)c12 [Compound 10f, 1-[4-(5-Methyl-7H-pyrrolo[2,3-d]pyrimidin-4-yl)-phenyl]-3-thiazol-2-yl-urea]
ROCK-II; [4]
  IC50: 2290 nM
Limk1; [5]
  IC50: 203 nM

## Cc1c[nH]c2ncnc(-c3ccc(NC(=O)Nc4ccccn4)cc3)c12 [Compound 10g, 1-[4-(5-Methyl-7H-pyrrolo[2,3-d]pyrimidin-4-yl)-phenyl]-3-pyridin-2-yl-urea]
ROCK-II; [4]
  IC50: > 10000 nM
Limk1; [5]
  IC50: 4510 nM

## COc1ccc(NC(=O)N(C)c2ccc(-c3ncnc4[nH]cc(C)c34)cc2)cc1 [Compound 14a, 3-(4-Methoxyphenyl)-1-methyl-1-(4-(5-methyl-7H-pyrrolo[2,3-d]pyrimidin-4-yl)phenyl)urea]
Limk1; read-out: Limk1 IC50
  IC50: 1090 nM

## COc1ccc(NC(=O)N(CCN2CCCC2)c2ccc(-c3ncnc4[nH]cc(C)c34)cc2)cc1 [Compound 14b, 3-(4-Methoxyphenyl)-1-(4-(5-methyl-7H-pyrrolo[2,3-d]pyrimidin-4-yl)phenyl)-1-(2-(pyrrolidin-1-yl)ethyl)urea]
Limk1
  Limk1 inhibition: even lower Limk1 inhibitions

## COc1ccc(NC(=O)N(CCN2CCCCC2)c2ccc(-c3ncnc4[nH]cc(C)c34)cc2)cc1 [Compound 14c, 3-(4-Methoxyphenyl)-1-(4-(5-methyl-7H-pyrrolo[2,3-d]pyrimidin-4-yl)phenyl)-1-(2-(piperidin-1-yl)ethyl)urea]
Limk1
  Limk1 inhibition: even lower Limk1 inhibitions

## Cc1c[nH]c2ncnc(-c3ccc(NC(=O)N(CCO)c4ccccc4F)cc3)c12 [Compound 18c, 1-(2-Fluorophenyl)-1-(2-hydroxyethyl)-3-(4-(5-methyl-7H-pyrrolo[2,3-d]pyrimidin-4-yl)phenyl)urea]
ROCK-II; [6]
  IC50: 1600 nM

## Cc1c[nH]c2ncnc(-c3ccc(NC(=O)N(CCO)c4cccc(F)c4)cc3)c12 [Compound 18d, 1-(3-Fluorophenyl)-1-(2-hydroxyethyl)-3-(4-(5-methyl-7H-pyrrolo[2,3-d]pyrimidin-4-yl)phenyl)urea]
ROCK-II; [6]
  IC50: 1900 nM

## Cc1ccccc1N(CCO)C(=O)Nc1ccc(-c2ncnc3[nH]cc(C)c23)cc1 [Compound 18i, 1-(2-Hydroxyethyl)-3-(4-(5-methyl-7H-pyrrolo[2,3-d]pyrimidin-4-yl)phenyl)-1-o-tolylurea]
ROCK-II; [6]
  IC50: > 10000 nM

## Cc1cccc(N(CCO)C(=O)Nc2ccc(-c3ncnc4[nH]cc(C)c34)cc2)c1 [Compound 18j, 1-(2-Hydroxyethyl)-3-(4-(5-methyl-7H-pyrrolo[2,3-d]pyrimidin-4-yl)phenyl)-1-m-tolylurea]
ROCK-II; [6]
  IC50: 8940 nM
Limk1; [7]
  IC50: 151 nM

## COc1ccc(N(CCN)C(=O)Nc2ccc(-c3ncnc4[nH]cc(C)c34)cc2)cc1 [Compound 18o, 1-(2-Aminoethyl)-1-(4-methoxyphenyl)-3-(4-(5-methyl-7H-pyrrolo[2,3-d]pyrimidin-4-yl)phenyl)urea]
[1]
  AUC (iv): 1.1 µM·h
  Cl (iv): 36.0 mL/min/kg
  T1/2 (iv): 4.6 h
  Yd (iv): 6.0 L/kg
  F (%) (po): 0%
  Cmax: 2.2 µM
Limk1; [7]
  IC50: 27 nM

## COc1ccc(N(CCN(C)C)C(=O)Nc2ccc(-c3ncnc4[nH]cc(C)c34)cc2)cc1 [Compound 18q, 1-(2-(Dimethylamino)ethyl)-1-(4-methoxyphenyl)-3-(4-(5-methyl-7H-pyrrolo[2,3-d]pyrimidin-4-yl)phenyl)urea]
ROCK-II; [6]
  IC50: > 10000 nM
ROCK-II; read-out: ROCK-II IC50
  IC50: > 10000 nM
